Values belong to the compound of their own block, whether it stands above or below them.
How the values were obtained:
Experiment in all cases: radiometric filter-binding kinase assay
[1] = test system: AKT1 (human), P31749 [S473D]
[2] = target: CHEK2 (human) (UniProt O96017)
[3] = target: CSNK1D (human) (UniProt P48730)
[4] = target: CaMK1 (human) (UniProt Q14012)
[5] = target: DYRK1A (human) (UniProt Q13627)
[6] = target: DYRK3 (human) (UniProt O43781)
[7] = target: EPHB2 (human) (UniProt P29323)
[8] = target: IKBKB (human) (UniProt O14920)
[9] = target: IKBKE (human) (UniProt Q14164)
[10] = target: IRAK4 (human) (UniProt Q9NWZ3)
[11] = target: JAK2 JH1 JH2 (human) (UniProt O60674)
[12] = target: MAP2K1 (human) (UniProt Q02750)
[13] = target: MAP3K11 (human) (UniProt Q16584)
[14] = target: MAPK14 (human) (UniProt Q16539)
[15] = target: MAPK3 (human) (UniProt P27361)
[16] = target: MAPK8 (human) (UniProt P45983)
[17] = target: MAPK9 (human) (UniProt P45984)
[18] = target: MAPKAPK2 (human) (UniProt P49137)
[19] = target: MARK1 (human) (UniProt Q9P0L2)
[20] = target: MARK2 (human) (UniProt Q7KZI7)
[21] = target: MARK3 (human) (UniProt P27448)
[22] = target: MKNK1 (human) (UniProt Q9BUB5)
[23] = target: MKNK2 (human) (UniProt Q9HBH9)
[24] = target: NEK2 (human) (UniProt P51955)
[25] = target: NEK6 (human) (UniProt Q9HC98)
[26] = target: NTRK1 (human) (UniProt P04629)
[27] = target: NUAK1 (human) (UniProt O60285)
[28] = target: PAK4 (human) (UniProt O96013)
[29] = target: PIM1 (human) (UniProt P11309)
[30] = target: RPS6KA1 KD1 KD2 (human) (UniProt Q15418)
[31] = test system: RPS6KB1 (human), P23443 [T412E]
[32] = target: STK11 CAB39 STRADA (human) (UniProt Q9Y376+Q7RTN6+Q15831)
[33] = target: STK3 (human) (UniProt Q13188)
[34] = target: TBK1 (human) (UniProt Q9UHD2)
[35] = target: TTK (human) (UniProt P33981)

MAP3K11 (human), sequence (Q16584 whole entry, looked up): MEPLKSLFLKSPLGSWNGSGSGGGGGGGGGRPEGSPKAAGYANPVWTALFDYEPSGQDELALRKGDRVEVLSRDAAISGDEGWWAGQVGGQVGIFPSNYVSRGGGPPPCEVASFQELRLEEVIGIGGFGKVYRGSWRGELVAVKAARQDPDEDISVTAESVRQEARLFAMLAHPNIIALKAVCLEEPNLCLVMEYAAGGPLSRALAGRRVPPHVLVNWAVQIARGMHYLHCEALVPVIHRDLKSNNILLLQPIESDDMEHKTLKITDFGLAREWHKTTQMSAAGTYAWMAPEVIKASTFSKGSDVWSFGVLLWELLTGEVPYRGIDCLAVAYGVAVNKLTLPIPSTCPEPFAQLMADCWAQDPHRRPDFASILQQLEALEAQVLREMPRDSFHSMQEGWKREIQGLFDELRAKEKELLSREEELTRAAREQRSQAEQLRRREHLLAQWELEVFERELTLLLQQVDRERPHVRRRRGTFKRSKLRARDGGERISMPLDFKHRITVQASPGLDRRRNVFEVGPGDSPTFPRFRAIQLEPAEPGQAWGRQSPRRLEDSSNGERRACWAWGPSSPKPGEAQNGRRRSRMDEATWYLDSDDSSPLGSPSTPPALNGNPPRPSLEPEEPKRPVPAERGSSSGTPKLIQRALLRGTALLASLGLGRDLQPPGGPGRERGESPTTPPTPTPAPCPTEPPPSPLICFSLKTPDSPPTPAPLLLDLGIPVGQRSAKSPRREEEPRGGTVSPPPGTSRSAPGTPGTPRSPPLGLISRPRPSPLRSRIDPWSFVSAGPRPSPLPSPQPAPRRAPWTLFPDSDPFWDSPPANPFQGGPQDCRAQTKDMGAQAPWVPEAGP
MARK1 (human), sequence (Q9P0L2 whole entry, looked up): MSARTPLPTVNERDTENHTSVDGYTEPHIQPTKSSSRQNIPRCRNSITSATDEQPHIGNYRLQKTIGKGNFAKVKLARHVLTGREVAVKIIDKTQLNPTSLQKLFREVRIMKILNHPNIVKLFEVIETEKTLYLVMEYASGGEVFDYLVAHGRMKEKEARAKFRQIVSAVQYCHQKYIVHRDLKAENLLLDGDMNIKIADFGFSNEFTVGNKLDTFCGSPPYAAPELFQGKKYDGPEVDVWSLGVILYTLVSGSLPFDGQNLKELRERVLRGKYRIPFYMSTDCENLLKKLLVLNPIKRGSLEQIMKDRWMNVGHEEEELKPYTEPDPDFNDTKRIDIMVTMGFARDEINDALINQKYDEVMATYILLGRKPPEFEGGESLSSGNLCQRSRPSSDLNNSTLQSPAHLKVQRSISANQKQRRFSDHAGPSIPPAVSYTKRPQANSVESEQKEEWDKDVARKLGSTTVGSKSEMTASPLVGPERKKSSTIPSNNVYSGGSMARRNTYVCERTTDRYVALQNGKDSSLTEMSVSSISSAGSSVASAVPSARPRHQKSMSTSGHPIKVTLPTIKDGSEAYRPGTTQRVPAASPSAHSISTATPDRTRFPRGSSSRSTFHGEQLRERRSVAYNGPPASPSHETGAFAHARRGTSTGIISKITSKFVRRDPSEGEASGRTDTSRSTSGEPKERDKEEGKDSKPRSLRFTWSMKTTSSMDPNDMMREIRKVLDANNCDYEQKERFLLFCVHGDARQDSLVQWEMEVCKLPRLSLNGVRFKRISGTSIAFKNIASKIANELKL
MAPK14 (human), sequence (Q16539 whole entry, looked up): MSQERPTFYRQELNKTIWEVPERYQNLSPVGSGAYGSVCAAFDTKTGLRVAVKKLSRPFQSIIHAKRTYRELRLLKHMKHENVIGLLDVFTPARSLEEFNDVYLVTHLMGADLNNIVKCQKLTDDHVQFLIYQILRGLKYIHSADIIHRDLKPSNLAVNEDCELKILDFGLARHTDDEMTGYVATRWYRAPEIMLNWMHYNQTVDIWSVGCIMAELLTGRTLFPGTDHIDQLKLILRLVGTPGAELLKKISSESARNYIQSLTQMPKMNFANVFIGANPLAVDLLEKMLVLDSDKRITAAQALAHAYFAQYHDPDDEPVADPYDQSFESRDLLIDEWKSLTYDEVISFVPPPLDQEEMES
CSNK1D (human), sequence (P48730 whole entry, looked up): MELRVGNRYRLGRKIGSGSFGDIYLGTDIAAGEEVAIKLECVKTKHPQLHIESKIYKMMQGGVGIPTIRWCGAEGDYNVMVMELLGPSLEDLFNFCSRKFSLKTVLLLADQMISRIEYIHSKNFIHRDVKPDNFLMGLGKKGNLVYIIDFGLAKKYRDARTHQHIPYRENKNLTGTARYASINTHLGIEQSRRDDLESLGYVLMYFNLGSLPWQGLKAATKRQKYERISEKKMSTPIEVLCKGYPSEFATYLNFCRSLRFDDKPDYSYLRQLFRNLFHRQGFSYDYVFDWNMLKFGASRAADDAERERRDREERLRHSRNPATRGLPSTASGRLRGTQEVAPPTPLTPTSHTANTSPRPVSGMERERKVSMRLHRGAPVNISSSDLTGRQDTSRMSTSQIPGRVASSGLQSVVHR
MAPK3 (human), sequence (P27361 whole entry, looked up): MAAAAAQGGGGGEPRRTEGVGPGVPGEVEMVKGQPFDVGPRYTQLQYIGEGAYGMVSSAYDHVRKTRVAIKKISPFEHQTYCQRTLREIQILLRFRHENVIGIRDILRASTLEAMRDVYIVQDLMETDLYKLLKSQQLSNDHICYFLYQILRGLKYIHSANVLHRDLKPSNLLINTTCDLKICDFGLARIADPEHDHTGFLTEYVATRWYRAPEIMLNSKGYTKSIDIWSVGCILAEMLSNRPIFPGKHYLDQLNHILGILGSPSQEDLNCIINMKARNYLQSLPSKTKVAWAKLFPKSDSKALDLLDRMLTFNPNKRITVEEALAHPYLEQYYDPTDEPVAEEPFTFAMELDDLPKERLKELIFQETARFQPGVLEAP
MKNK1 (human), sequence (Q9BUB5 whole entry, looked up): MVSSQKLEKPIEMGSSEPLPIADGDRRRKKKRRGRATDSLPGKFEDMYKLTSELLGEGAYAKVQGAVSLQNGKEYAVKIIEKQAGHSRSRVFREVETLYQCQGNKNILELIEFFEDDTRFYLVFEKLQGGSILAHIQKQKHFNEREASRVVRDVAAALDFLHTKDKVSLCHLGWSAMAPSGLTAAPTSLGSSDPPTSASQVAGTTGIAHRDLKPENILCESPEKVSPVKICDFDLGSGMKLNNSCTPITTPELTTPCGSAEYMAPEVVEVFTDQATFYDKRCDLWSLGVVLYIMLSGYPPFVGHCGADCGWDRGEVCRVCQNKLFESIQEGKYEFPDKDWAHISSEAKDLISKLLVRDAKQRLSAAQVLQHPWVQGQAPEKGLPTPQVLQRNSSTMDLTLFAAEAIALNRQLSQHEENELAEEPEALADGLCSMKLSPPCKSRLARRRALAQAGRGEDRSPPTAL
MAPK9 (human), sequence (P45984 whole entry, looked up): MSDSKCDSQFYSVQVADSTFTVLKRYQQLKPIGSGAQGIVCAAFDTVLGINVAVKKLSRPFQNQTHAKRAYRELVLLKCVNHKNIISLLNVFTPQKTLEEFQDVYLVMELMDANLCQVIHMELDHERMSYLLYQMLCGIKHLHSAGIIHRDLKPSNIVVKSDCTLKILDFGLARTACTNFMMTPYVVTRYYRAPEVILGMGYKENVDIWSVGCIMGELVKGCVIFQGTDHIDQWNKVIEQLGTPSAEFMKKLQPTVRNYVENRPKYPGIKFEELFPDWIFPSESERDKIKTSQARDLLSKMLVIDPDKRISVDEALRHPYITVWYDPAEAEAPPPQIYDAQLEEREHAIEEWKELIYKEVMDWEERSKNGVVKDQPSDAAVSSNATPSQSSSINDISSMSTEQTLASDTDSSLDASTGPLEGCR
JAK2 JH1 JH2 (human), sequence (O60674 whole entry, looked up): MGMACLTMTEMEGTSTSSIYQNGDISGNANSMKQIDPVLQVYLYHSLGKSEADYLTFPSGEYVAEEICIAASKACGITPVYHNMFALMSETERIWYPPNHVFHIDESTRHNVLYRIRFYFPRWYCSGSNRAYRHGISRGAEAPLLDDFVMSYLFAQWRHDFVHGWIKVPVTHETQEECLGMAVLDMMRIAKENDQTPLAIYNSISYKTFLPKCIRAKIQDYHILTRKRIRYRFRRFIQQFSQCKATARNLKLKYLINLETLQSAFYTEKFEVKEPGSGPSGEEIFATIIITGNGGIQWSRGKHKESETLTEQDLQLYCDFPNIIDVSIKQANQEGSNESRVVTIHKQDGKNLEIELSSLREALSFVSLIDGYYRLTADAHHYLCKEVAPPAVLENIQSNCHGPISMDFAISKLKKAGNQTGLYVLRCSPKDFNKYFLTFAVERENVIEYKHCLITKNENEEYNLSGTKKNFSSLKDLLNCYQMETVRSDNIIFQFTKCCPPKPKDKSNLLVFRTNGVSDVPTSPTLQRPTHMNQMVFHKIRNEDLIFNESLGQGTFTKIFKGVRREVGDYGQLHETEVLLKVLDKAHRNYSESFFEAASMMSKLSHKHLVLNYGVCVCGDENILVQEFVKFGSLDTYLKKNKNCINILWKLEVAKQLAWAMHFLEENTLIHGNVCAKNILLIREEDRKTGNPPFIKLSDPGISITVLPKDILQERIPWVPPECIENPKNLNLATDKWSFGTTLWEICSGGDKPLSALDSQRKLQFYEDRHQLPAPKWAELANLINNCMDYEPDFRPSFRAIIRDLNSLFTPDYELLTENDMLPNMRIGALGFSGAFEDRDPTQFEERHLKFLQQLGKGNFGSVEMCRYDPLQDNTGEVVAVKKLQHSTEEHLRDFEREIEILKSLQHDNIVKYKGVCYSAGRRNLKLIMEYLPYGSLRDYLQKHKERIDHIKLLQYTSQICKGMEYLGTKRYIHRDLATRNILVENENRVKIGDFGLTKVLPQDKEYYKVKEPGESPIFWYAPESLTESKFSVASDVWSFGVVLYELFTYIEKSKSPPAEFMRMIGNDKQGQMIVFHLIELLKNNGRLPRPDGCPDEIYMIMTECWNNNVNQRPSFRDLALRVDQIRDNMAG

- residual activity ([1]; compound 1.0 µM): 81%
- residual activity ([1]; compound 10.0 µM): 63%
- residual activity ([2]; compound 1.0 µM): 60%
- residual activity ([2]; compound 10.0 µM): 34%
- residual activity ([3]; compound 1.0 µM): 86%
- residual activity ([3]; compound 10.0 µM): 78%
- residual activity ([4]; compound 1.0 µM): 85%
- residual activity ([4]; compound 10.0 µM): 27%
- residual activity ([5]; compound 1.0 µM): 99%
- residual activity ([5]; compound 10.0 µM): 80%
- residual activity ([6]; compound 1.0 µM): 84%
- residual activity ([6]; compound 10.0 µM): 40%
- residual activity ([7]; compound 1.0 µM): 119%
- residual activity ([7]; compound 10.0 µM): 113%
- residual activity ([8]; compound 1.0 µM): 6%
- residual activity ([8]; compound 10.0 µM): 4%
- residual activity ([9]; compound 1.0 µM): 87%
- residual activity ([9]; compound 10.0 µM): 96%
- residual activity ([10]; compound 1.0 µM): 124%
- residual activity ([10]; compound 10.0 µM): 70%
- residual activity ([11]; compound 1.0 µM): 27%
- residual activity ([11]; compound 10.0 µM): 4%
- residual activity ([12]; compound 1.0 µM): 117%
- residual activity ([12]; compound 10.0 µM): 51%
- residual activity ([13]; compound 1.0 µM): 87%
- residual activity ([13]; compound 10.0 µM): 44%
- residual activity ([14]; compound 1.0 µM): 102%
- residual activity ([14]; compound 10.0 µM): 91%
- residual activity ([15]; compound 1.0 µM): 85%
- residual activity ([15]; compound 10.0 µM): 80%
- residual activity ([16]; compound 1.0 µM): 110%
- residual activity ([16]; compound 10.0 µM): 80%
- residual activity ([17]; compound 1.0 µM): 83%
- residual activity ([17]; compound 10.0 µM): 71%
- residual activity ([18]; compound 1.0 µM): 115%
- residual activity ([18]; compound 10.0 µM): 95%
- residual activity ([19]; compound 1.0 µM): 88%
- residual activity ([19]; compound 10.0 µM): 95%
- residual activity ([20]; compound 1.0 µM): 89%
- residual activity ([20]; compound 10.0 µM): 96%
- residual activity ([21]; compound 1.0 µM): 118%
- residual activity ([21]; compound 10.0 µM): 82%
- residual activity ([22]; compound 1.0 µM): 101%
- residual activity ([22]; compound 10.0 µM): 90%
- residual activity ([23]; compound 1.0 µM): 113%
- residual activity ([23]; compound 10.0 µM): 89%
- residual activity ([24]; compound 1.0 µM): 85%
- residual activity ([24]; compound 10.0 µM): 94%
- residual activity ([25]; compound 1.0 µM): 99%
- residual activity ([25]; compound 10.0 µM): 101%
- residual activity ([26]; compound 1.0 µM): 68%
- residual activity ([26]; compound 10.0 µM): 20%
- residual activity ([27]; compound 1.0 µM): 53%
- residual activity ([27]; compound 10.0 µM): 24%
- residual activity ([28]; compound 1.0 µM): 112%
- residual activity ([28]; compound 10.0 µM): 69%
- residual activity ([29]; compound 1.0 µM): 63%
- residual activity ([29]; compound 10.0 µM): 18%
- residual activity ([30]; compound 1.0 µM): 45%
- residual activity ([30]; compound 10.0 µM): 6%
- residual activity ([31]; compound 1.0 µM): 88%
- residual activity ([31]; compound 10.0 µM): 53%
- residual activity ([32]; compound 1.0 µM): 78%
- residual activity ([32]; compound 10.0 µM): 65%
- residual activity ([33]; compound 1.0 µM): 83%
- residual activity ([33]; compound 10.0 µM): 34%
- residual activity ([34]; compound 1.0 µM): 80%
- residual activity ([34]; compound 10.0 µM): 86%
- residual activity ([35]; compound 1.0 µM): 89%
- residual activity ([35]; compound 10.0 µM): 66%
SMILES: N#Cc1c(C2CCNCC2)cc(-c2c(O)cccc2OCC2CC2)nc1N

- residual activity ([1]; compound 1.0 µM): 98%
- residual activity ([1]; compound 10.0 µM): 36%
- residual activity ([2]; compound 0.1 µM): 121%
- residual activity ([2]; compound 1.0 µM): 96%
- residual activity ([2]; compound 10.0 µM): 51%
- residual activity ([3]; compound 0.01 µM): 100%
- residual activity ([3]; compound 0.1 µM): 108%
- residual activity ([3]; compound 1.0 µM): 96%
- residual activity ([3]; compound 10.0 µM): 88%
- residual activity ([4]; compound 0.01 µM): 108%
- residual activity ([4]; compound 0.1 µM): 112%
- residual activity ([4]; compound 1.0 µM): 89%
- residual activity ([4]; compound 10.0 µM): 95%
- residual activity ([5]; compound 0.01 µM): 102%
- residual activity ([5]; compound 0.1 µM): 107%
- residual activity ([5]; compound 1.0 µM): 92%
- residual activity ([5]; compound 10.0 µM): 82%
- residual activity ([6]; compound 0.01 µM): 100%
- residual activity ([6]; compound 0.1 µM): 103%
- residual activity ([6]; compound 1.0 µM): 94%
- residual activity ([6]; compound 10.0 µM): 88%
- residual activity ([7]; compound 1.0 µM): 119%
- residual activity ([7]; compound 10.0 µM): 111%
- residual activity ([8]; compound 0.01 µM): 105%
- residual activity ([8]; compound 0.1 µM): 112%
- residual activity ([8]; compound 1.0 µM): 118%
- residual activity ([8]; compound 10.0 µM): 103%
- residual activity ([9]; compound 0.01 µM): 114%
- residual activity ([9]; compound 0.1 µM): 97%
- residual activity ([9]; compound 1.0 µM): 91%
- residual activity ([9]; compound 10.0 µM): 45%
- residual activity ([10]; compound 0.01 µM): 109%
- residual activity ([10]; compound 0.1 µM): 112%
- residual activity ([10]; compound 1.0 µM): 92%
- residual activity ([10]; compound 10.0 µM): 99%
- residual activity ([11]; compound 1.0 µM): 108%
- residual activity ([11]; compound 10.0 µM): 99%
- residual activity ([12]; compound 0.01 µM): 86%
- residual activity ([12]; compound 0.1 µM): 101%
- residual activity ([12]; compound 1.0 µM): 85%
- residual activity ([12]; compound 10.0 µM): 74%
- residual activity ([13]; compound 0.01 µM): 100%
- residual activity ([13]; compound 0.1 µM): 110%
- residual activity ([13]; compound 1.0 µM): 80%
- residual activity ([13]; compound 10.0 µM): 44%
- residual activity ([14]; compound 0.01 µM): 105%
- residual activity ([14]; compound 0.1 µM): 109%
- residual activity ([14]; compound 1.0 µM): 100%
- residual activity ([14]; compound 10.0 µM): 99%
- residual activity ([15]; compound 0.01 µM): 93%
- residual activity ([15]; compound 0.1 µM): 106%
- residual activity ([15]; compound 1.0 µM): 103%
- residual activity ([15]; compound 10.0 µM): 108%
- residual activity ([16]; compound 0.01 µM): 92%
- residual activity ([16]; compound 0.1 µM): 108%
- residual activity ([16]; compound 1.0 µM): 94%
- residual activity ([16]; compound 10.0 µM): 108%
- residual activity ([17]; compound 0.01 µM): 117%
- residual activity ([17]; compound 0.1 µM): 126%
- residual activity ([17]; compound 1.0 µM): 104%
- residual activity ([17]; compound 10.0 µM): 114%
- residual activity ([18]; compound 0.01 µM): 104%
- residual activity ([18]; compound 0.1 µM): 111%
- residual activity ([18]; compound 1.0 µM): 86%
- residual activity ([18]; compound 10.0 µM): 84%
- residual activity ([19]; compound 1.0 µM): 99%
- residual activity ([19]; compound 10.0 µM): 84%
- residual activity ([20]; compound 0.01 µM): 113%
- residual activity ([20]; compound 0.1 µM): 114%
- residual activity ([20]; compound 1.0 µM): 96%
- residual activity ([20]; compound 10.0 µM): 102%
- residual activity ([21]; compound 0.01 µM): 113%
- residual activity ([21]; compound 0.1 µM): 109%
- residual activity ([21]; compound 1.0 µM): 88%
- residual activity ([21]; compound 10.0 µM): 87%
- residual activity ([22]; compound 0.01 µM): 106%
- residual activity ([22]; compound 0.1 µM): 108%
- residual activity ([22]; compound 1.0 µM): 111%
- residual activity ([22]; compound 10.0 µM): 92%
- residual activity ([23]; compound 0.01 µM): 91%
- residual activity ([23]; compound 1.0 µM): 80%
- residual activity ([23]; compound 10.0 µM): 94%
- residual activity ([24]; compound 0.01 µM): 118%
- residual activity ([24]; compound 0.1 µM): 118%
- residual activity ([24]; compound 1.0 µM): 94%
- residual activity ([24]; compound 10.0 µM): 91%
- residual activity ([25]; compound 0.01 µM): 98%
- residual activity ([25]; compound 0.1 µM): 101%
- residual activity ([25]; compound 1.0 µM): 84%
- residual activity ([25]; compound 10.0 µM): 79%
- residual activity ([26]; compound 1.0 µM): 94%
- residual activity ([26]; compound 10.0 µM): 84%
- residual activity ([27]; compound 0.01 µM): 120%
- residual activity ([27]; compound 0.1 µM): 105%
- residual activity ([27]; compound 1.0 µM): 47%
- residual activity ([27]; compound 10.0 µM): 9%
- residual activity ([28]; compound 0.01 µM): 108%
- residual activity ([28]; compound 0.1 µM): 117%
- residual activity ([28]; compound 1.0 µM): 100%
- residual activity ([29]; compound 0.01 µM): 99%
- residual activity ([29]; compound 0.1 µM): 100%
- residual activity ([29]; compound 1.0 µM): 112%
- residual activity ([29]; compound 10.0 µM): 93%
- residual activity ([30]; compound 0.01 µM): 123%
- residual activity ([30]; compound 0.1 µM): 113%
- residual activity ([30]; compound 1.0 µM): 86%
- residual activity ([30]; compound 10.0 µM): 40%
- residual activity ([31]; compound 0.01 µM): 111%
- residual activity ([31]; compound 0.1 µM): 106%
- residual activity ([31]; compound 1.0 µM): 108%
- residual activity ([31]; compound 10.0 µM): 81%
- residual activity ([32]; compound 0.01 µM): 104%
- residual activity ([32]; compound 0.1 µM): 124%
- residual activity ([32]; compound 1.0 µM): 110%
- residual activity ([32]; compound 10.0 µM): 103%
- residual activity ([33]; compound 0.01 µM): 116%
- residual activity ([33]; compound 0.1 µM): 128%
- residual activity ([33]; compound 1.0 µM): 91%
- residual activity ([33]; compound 10.0 µM): 84%
- residual activity ([34]; compound 0.01 µM): 110%
- residual activity ([34]; compound 0.1 µM): 115%
- residual activity ([34]; compound 1.0 µM): 89%
- residual activity ([34]; compound 10.0 µM): 81%
- residual activity ([35]; compound 0.01 µM): 90%
- residual activity ([35]; compound 0.1 µM): 98%
- residual activity ([35]; compound 1.0 µM): 84%
- residual activity ([35]; compound 10.0 µM): 61%
SMILES: CNc1nc(-c2ccc3c(N)n[nH]c3c2)cc(N2C[C@@H](C(=O)NC3CCCCC3)CC[C@H]2C)n1

Reference: the kinase profiling compilation of Christmann-Franck et al. (2016)
